Source: patent US8614178B2, “Pharmaceutical composition for treatment of dry eye syndrome” (Novaliq GmbH, priority 2009, dated 2013)
Where two headings read alike, the source gives them in different places. Blank lines part the entries; values can stand above or below the compound they belong to.

How the values were obtained:
[1] = Droplet size (weight and volume) from three droppers; type: physicochemical; conditions: 25° C.; for Droplet volume: calculated; for Droplet weight: mean ± SD
Method: The droplet size of selected SFA's in terms of weight and volume of droplets from three droppers was determined and compared to that of purified water. The devices used for dispensing the droplets were (a) a 2 mL Pasteur pipette (wall thickness 0.53 mm; external tip diameter: 1.50 mm; length: 150 mm) made of glass, (b) a 20 G (0.9 mm×50 mm) injection needle, and (c) a dropper from a commercial eye drops product (Hylo-Vision). The droplet weights were measured at 25° C. using a laboratory balance; the volumes were calculated. Each test was performed 10 times.

rabbit eyes [2] = system: rabbit eyes
[3] = Refractive index determination; conditions: neat SFA
[4] = system: Sjögren syndrome patients; conditions: oral, clinical studies; cited from earlier work
rabbit eyes [5] = assay: Ex-vivo eye irritation test (EVEIT), abraded cornea

Droplet volume ([1]; Eye dropper (Hylo-Vision)): 10.3 ± 0.3 µL
Droplet weight ([1]; Eye dropper (Hylo-Vision)): 13.7 ± 0.4 mg
Droplet volume ([1]; Glass pipette): 5.0 ± 0.4 µL
Droplet weight ([1]; Glass pipette, 10 tests): 6.6 ± 0.6 mg
Droplet volume ([1]; Injection needle 20 G): 2.5 ± 0.1 µL
Droplet weight ([1]; Injection needle 20 G): 3.4 ± 0.2 mg
Refractive index [3]: 1.3432
Compound: CCCCCCCCC(F)(F)C(F)(F)C(F)(F)C(F)(F)C(F)(F)C(F)(F)F [Example F6H8]
Healing of corneal lesions (rabbit eyes [2]): all lesions healed fully during the experimental time

Refractive index [3]: 1.348
Compound: CCCCCCCCC(F)(F)C(F)(F)C(F)(F)C(F)(F)F [Example F4H8]

Refractive index [3]: 1.308
Compound: CCCCC(F)(F)C(F)(F)C(F)(F)C(F)(F)F [Example F4H4]

Refractive index [3]: 1.3366
Compound: CCCCCCCC(F)(F)C(F)(F)C(F)(F)C(F)(F)C(F)(F)C(F)(F)F [Example F6H7]

Refractive index [3]: 1.295
Compound: CCC(F)(F)C(F)(F)C(F)(F)C(F)(F)C(F)(F)C(F)(F)F [Example F6H2]

Refractive index [3]: 1.3357
Compound: CCCCCCCC(F)(F)C(F)(F)C(F)(F)C(F)(F)F [Example F4H7]

More lines, now with the values behind:

Compound: O [Water, water, reference compound]
Droplet volume ([1]; Eye dropper (Hylo-Vision)): 36.1 ± 2.2 µL
Droplet weight ([1]; Eye dropper (Hylo-Vision)): 36.0 ± 2.2 mg
Droplet volume ([1]; Glass pipette): 31.3 ± 1.4 µL
Droplet weight ([1]; Glass pipette, 10 tests): 31.2 ± 1.4 mg
Droplet volume ([1]; Injection needle 20 G): 11.1 ± 0.9 µL
Droplet weight ([1]; Injection needle 20 G): 11.0 ± 0.9 mg

Compound: CC[C@@H]1C(=O)OC[C@@H]1Cc1cncn1C [pilocarpine]
Effect on DED symptoms [4]: significantly improved DED symptoms

Compound: CCCCCCC(F)(F)C(F)(F)C(F)(F)C(F)(F)F [Example F4H6]
Refractive index [3]: 1.334

Compound: CCCCC(F)(F)C(F)(F)C(F)(F)C(F)(F)C(F)(F)C(F)(F)F [Example F6H4]
Refractive index [3]: 1.306

Compound: CCCCCC(F)(F)C(F)(F)C(F)(F)C(F)(F)F [Example F4H5]
Droplet volume ([1]; Eye dropper (Hylo-Vision)): 9.6 ± 0.2 µL
Droplet weight ([1]; Eye dropper (Hylo-Vision)): 12.4 ± 0.2 mg
Droplet volume ([1]; Glass pipette): 4.7 ± 0.3 µL
Droplet weight ([1]; Glass pipette, 10 tests): 6.0 ± 0.4 mg
Droplet volume ([1]; Injection needle 20 G): 2.0 ± 0.3 µL
Droplet weight ([1]; Injection needle 20 G): 2.6 ± 0.4 mg
Refractive index [3]: 1.3204
Penetration into the cornea (rabbit eyes [5]; OCT imaging): no indication of penetration of F4H5 into the cornea
Morphological and histological evaluation of cornea (rabbit eyes [5]; end of test): had not only healed very well, but were also entirely clear at the end of the tests, with healthy and smooth surface morphology
Physiological tolerability (rabbit eyes [5]; in words): better tolerated than culture medium

Compound: benzalkonium chloride [BAC]
Healing of corneal lesions (rabbit eyes [2]): rapid growth of the lesions eventually leading to a complete disintegration of the corneal epithelium
Morphological and histological evaluation of cornea (rabbit eyes [2]): complete disintegration of the corneal epithelium, but also a major impairment of the complete cornea even including the endothelium

Compound: CC1OC2(CS1)CN1CCC2CC1 (stereo not shown) [Cevimeline]
Effect on DED symptoms [4]: effective in the management of symptoms associated with keratoconjunctivitis sicca of the Sjögren type

Compound: CCCCCCCCCC(F)(F)C(F)(F)C(F)(F)C(F)(F)C(F)(F)C(F)(F)F [Example F6H9]
Refractive index [3]: 1.3494

Compound: CCCCCCC(F)(F)C(F)(F)C(F)(F)C(F)(F)C(F)(F)C(F)(F)F [Example F6H6]
Refractive index [3]: 1.3224
